Data taken from US20010049369A1, “Brimonidine compositions and methods for retinal degeneration” (priority 2000, published 2001).
Where two headings read alike, the source gives them in different places.

Key:
cAMP = details: retina (Osborne 1991); cited from earlier work
retinal ganglion cells = details: rat, intraperitoneal administration (Yoles et al 1999); cited from earlier work
opsin = details: 0.0001% brimonidine in culture media
Protocol: (§1) The following studies were performed on Xenopus embryos. Briefly, eye rudiments were removed from stage 33/34 Xenopus embryos. The RPE was peeled from the outer retinal surface and eyes were cultured for 3 days in Niu-Twitty (NT) medium. The same experiment was performed in NT medium containing 0.001% brimonidine. Control conditions included eye rudiments cultured with the RPE and eyes allowed to mature in vivo to an equivalent developmental stage. Retinal morphology was assessed, carefully evaluating PRs and MCs.
The culture preparation used in these studies has been previously described (Hollyfield, 1974; Lolley, 1977; Stiemke, 1994; Stiemke, 1995; and Jablonski, 1999). The handling of animals was in accordance with the Declaration of Helsinki and The Guiding Principles in the Care and Use of Animals (DHEW Publication, NIH 80-23). Human chorionic gonadotropin (Sigma Chemical Co., St. Louis, Mo.) was to induce adult Xenopus laevis to breed. The external staging system of Nieuwkoop and Faber was used to determine retinal maturity (Nieuwkoop, 1956). Embryos and isolated eyes were maintained under cyclic lighting conditions (12 hour light: 12 hour dark) in all experiments, rudimentary eyes were removed from embryos at state 33/34, just as photoreceptor outer segments are beginning to form (Stiemke, 1994). […]

[1] = topical administration to the eye, animals and clinical trials; cited from earlier work
[2] = system: Müller cells of RPE-free eye rudiments; details: for upregulation of GFAP induced by RPE removal: brimonidine added to culture media; for glutamine synthetase (GS) immunoreactivity: brimonidine-treated RPE-free eye rudiments
Protocol: as §1
The culture preparation used in these studies has been previously described (Hollyfield, 1974; Lolley, 1977; Stiemke, 1994; Stiemke, 1995; and Jablonski, 1999). The handling of animals was in accordance with the Declaration of Helsinki and The Guiding Principles in the Care and Use of Animals (DHEW Publication, NIH 80-23). Human chorionic gonadotropin (Sigma Chemical Co., St. Louis, Mo.) was to induce adult Xenopus laevis to breed. The external staging system of Nieuwkoop and Faber was used to determine retinal maturity (Nieuwkoop, 1956). Embryos and isolated eyes were maintained under cyclic lighting conditions (12 hour light: 12 hour dark) in all experiments, rudimentary eyes were removed from embryos at state 33/34, just as photoreceptor outer segments are beginning to form (Stiemke, 1994). Eyes were maintained in vitro for three days at 23° C. in Niu-Twitty medium (Jacobson, 1967) after which they were fixed for subsequent analyses.
When appropriate, the overlying RPE was gently peeled away from the neuroepithelium using finely polished forceps, leaving the underlying retina exposed to the culture medium. Eye rudiments without a closely adherent RPE were cultured in Niu-Twitty media alone, Niu-Twitty containing 0.001% brimonidine. Eyes allowed to mature in vitro in the presence of an adherent RPE in Niu-Twitty medium alone were used as controls.
Any eye with an uneven surface or which had many loose cells associated with it was discarded.

ischemic retinal injury = details: cited from earlier work
[3] = expected, topical administration, to be verified
Description: The intraocular concentration is likely to be inversely proportional to the surface area available for absorption. […] Once verified, the dosage of brimonidine in eyedrops will be adjusted accordingly (10:1 dilution, i.e. 0.02%) to mimic more closely the intraocular concentrations that would be reached during human application.
The intraocular concentration is likely to be inversely proportional to the surface area available for absorption. […] Once verified, the dosage of brimonidine in the eyedrops would be adjusted accordingly (predicted to be a 10:1 dilution, i.e., 0.02%) to mimic more closely the intraocular concentrations that would be reached during human application.

[4] = rabbit, cited from earlier work
[5] = primate, 2% solution of brimonidine tartrate, twice daily; cited from earlier work
[6] = topically applied, glaucomatous patients (Lachkar 1998; Carlsson 1999); cited from earlier work
photoreceptors = details: albino rats, cited from earlier work; for protection of photoreceptors from light damage: systemic administration (Wen et al., 1996)
[7] = system: mitogen-activated protein kinase (MAPK); details: systemically administered (Peng et al., 1998); cited from earlier work
[8] = system: retinal degeneration (RP); details: patients with RP, 15,000 I.U. daily (Berson 1993); cited from earlier work

## Brc1c(NC2=NCCN2)ccc2nccnc12 [UK 14304]
cAMP
  cAMP levels following stimulation with forskolin and VIP: reduce cAMP levels

## Brc1c(NC2=NCCN2)ccc2nccnc12 [brimonidine, 5-bromo-6-(2-imidazolidinylideneamino)-quinoxaline]
Retinal ganglion cells
  loss of retinal ganglion cells induced by the crush: effective in decreasing loss of retinal ganglion cells
opsin
  amount of opsin/eye compared to RPE-free eyes cultured without brimonidine: marked increase
[1]
  intraocular pressure (IOP): decrease in intraocular pressure
[2]; 0.0001% brimonidine, RPE removed, data not shown
  n-cadherin immunolocalization patterns: preserved
[2]; RPE removed
  upregulation of GFAP induced by RPE removal: virtually abolished
[2]; RPE removed, listed as Brimonidine
  upregulation of GFAP induced by RPE removal: prevented the upregulation of GFAP expression
[2]
  glutamine synthetase (GS) immunoreactivity: well preserved
[2]; listed as Brimonidine
  glutamine synthetase (GS) immunoreactivity: allows Müller cells to express glutamine synthetase in the absence of the RPE
Ischemic retinal injury; retinal ischemia
  ERG b-wave truncation due to ischemia: partially prevent this b-wave truncation
Ischemic retinal injury; topically applied 1 hour before injury (Wheeler et al. 1999)
  ischemic retinal injury: effective in decreasing ischemic retinal injury
[3]
  intraocular concentration in mouse eye relative to primate eye: approximately 10 times
[4]; 2% solution of brimonidine tartrate, twice daily
  intravitreal concentration reached via topical administration: 450 nM
[4]; topical administration to the other eye
  concentration reaching the fellow eye via the systemic circulation: < 15 nM
[5]
  intravitreal concentration reached via topical administration: 100 nM

## brimonidine tartrate
[6]
  blood flow in ophthalmic, central retinal, nasal and temporal ciliary arteries: did not affect the blood flow

## Clc1cccc(Cl)c1N=C1NCCN1 [clonidine]
cAMP
  cAMP levels following stimulation with forskolin and VIP: reduce cAMP levels
photoreceptors
  protection of photoreceptors from light damage: protect the photoreceptors of albino rats from light damage
[7]
  MAPK phosphorylation in Müller cells: activate selectively and specifically

## CCCCCCCCCCCCCCCC(=O)OC/C=C(C)/C=C/C=C(C)/C=C/C1=C(C)CCCC1(C)C [vitamin A palmitate]
[8]
  progression of retinal degeneration: slowed, but did not prevent, the progression of retinal degeneration

## Cc1cccc(C)c1N=C1NCCCS1 [xylazine]
photoreceptors
  protection of photoreceptors from light damage: protect the photoreceptors of albino rats from light damage
[7]
  MAPK phosphorylation in Müller cells: activate selectively and specifically

## COC(=O)[C@@H]1[C@H]2C[C@H]3c4[nH]c5ccccc5c4CCN3C[C@@H]2CC[C@@H]1O [yohimbine]
photoreceptors; pretreatment with the antagonist (Wen et al., 1996)
  effect of pretreatment on the protective effect of xylazine and clonidine: prevented the protective effect
